Experimental data reported in US10174013B2, “Benzimidazole derivatives as kinase inhibitors” (SELVITA S.A., priority 2012, dated 2019).
Counter-ions that a name gives are not always drawn. Blank lines part the entries; values can stand above or below the compound they belong to.

Legend:
Pim-1 = Pim-1 (Homo sapiens (Human), UniProt P11309); test: ADP-Glo Kinase Assay, Pim-1; type: biochemical; settings: 1 μM compound; read-out: Pim-1 % INH (1 μM)
Method in brief: (§1)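 Buffer was MOPS 5 mM (pH 7.5) with MgCl2, EDTA and DTT; ATP set at apparent Km per kinase. Compounds were diluted in assay buffer to 1000 nM. Kinase-generated ADP was converted to luciferase signal and normalised to percent inhibition.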

FLT3wt = FLT3wt (Homo sapiens (Human), UniProt P36888); test: ADP-Glo Kinase Assay, Flt3 wt; type: biochemical; settings: 1 μM compound; read-out: Flt3wt % INH (1 μM)
Method in brief: as §1

CDK2/E = CDK2/E (Homo sapiens (Human), UniProt P24941); test: ADP-Glo Kinase Assay, CDK2/E; type: biochemical; settings: 1 μM compound; read-out: CDK2/E % INH (1 μM)
Method in brief: as §1

DYRK1 = DYRK1 (Homo sapiens (Human), UniProt Q13627); test: ADP-Glo Kinase Assay, DYRK1; type: biochemical; settings: 1 μM compound; read-out: DYRK1A % INH (1 μM)
Method in brief: as §1

MV4-11 cells = test: Growth inhibition, MTS assay, MV4-11; type: cell-based, Human; settings: Homo sapiens, MV4-11, 72 h, MTS cell viability, read-out: MV4-11 ED50
HepG2 cells = test: Growth inhibition, MTS assay, HepG2; type: cell-based, Human; settings: Homo sapiens, HepG2, 72 h, MTS cell viability, read-out: HepG2 ED50
MOLM16 cells = test: Growth inhibition, MTS assay, MOLM16; type: cell-based, Human; settings: Homo sapiens, MOLM16, 72 h, MTS cell viability, read-out: MOLM 16 ED50
Description: The following cell lines, were obtained and used in tests as outlined below: • Human myelomonocytic, biphenotypic leukemia MV4-11 cells (harboring a Flt3-ITD mutation); • Human Acute Myeloid Leukemia MOLM16 cells; • Human Acute Myeloid Leukemia MOLM13 cells (harboring a Flt3-ITD mutation); • Human Myeloid Leukemia KG-1 cells; • Human erythroleukemia HEL92 cells; • Human mantle cell lymphoma Jeko-1 cells; • Human hepatocellular carcinoma HepG2 cells; and • Human colon adenocarcinoma SW-480 cells.
The assays were carried out according to the following protocol, which is described as an example for the MV4-11 cells:
Ten thousand MV4-11 cells were inoculated into each well of a 96-well microplate (manufactured by Corning Corp.) using Iscove's MDM medium (culture medium) containing 10% fetal calf serum (FCS). The same day, a dimethyl sulfoxide (DMSO) solution of each test compound prepared in a concentration of 10 mmol/L was further diluted with DMSO to the desired concentrations (0.1, 0.5, 1, 2.5, 5 and 10 micromol/L), and the diluted solution was added to each well. The individual wells were further cultured in 5% carbon dioxide at 37° C. for 72 hours. […] Briefly, 10 μl MTS (3-(4,5-Dimethyl-2-thiazolyl)-5-(carboxymethoxyphenyl)-2-(4-sulfophenyl)-2H-tetrazolium was added to each well, and culturing was performed in 5% carbon dioxide at 37° C. for 2 hours. After this incubation and using a microplate spectrophotometer (Synergy 2 multi-mode microplate reader (BioTek)), the absorbance of each well was measured at 490 nm. The value for cells not incubated with a test compound was designated as 100%. By comparing these values with the absorbance difference obtained at the well in which each test compound was added, the cell viability (% viability) after treatment with the test compound was calculated.

Pim-2 = Pim-2 (Homo sapiens (Human), UniProt Q9P1W9); test: ADP-Glo Kinase Assay, Pim-2; type: biochemical; settings: 1 μM compound; read-out: Pim-2 % INH (1 μM)
Method in brief: as §1

Pim-3 = Pim-3 (Homo sapiens (Human), UniProt Q86V86); test: ADP-Glo Kinase Assay, Pim-3; type: biochemical; settings: 1 μM compound; read-out: Pim-3 % INH (1 μM)
Method in brief: as §1

HEL92 cells = test: Growth inhibition, MTS assay, HEL92; type: cell-based, Human; settings: Homo sapiens, 72 h, MTS cell viability, read-out: HEL92 ED50
SW-480 cells = test: Growth inhibition, MTS assay, SW-480; type: cell-based, Human; settings: Homo sapiens, SW480; 72 hours, MTS cell viability; read-out: SW-480 ED50
CYP3A4 = CYP3A4 (Homo sapiens (Human), UniProt P08684); test: Cytochrome P450 inhibition, fluorescence, CYP3A4; type: in vitro ADME; settings: recombinant CYP3A4, fluorescence detection; read-out: CYP inhibition (CYP 3A4 screening, IC50 class)
Description: The assays for cytochrome P450 inhibition facilitate the identification of drug candidates with lower potential for drug-drug interactions (weak enzymes inhibitors). In vitro experiments were conducted to determine whether a drug inhibits a specific CYP enzyme. The experiments comprised the incubation of the drug with probe substrates for the CYP enzymes, wherein the following recombinant cytochrome P450 isoforms were employed: CYP1A2, CYP2C8, CYP2C9, CYP2C19, CYP2D6 and CYP3A4, together with various probe substrates enabling fluorescence detection. The protocol uses a single substrate concentration near the apparent Km and multiple compound concentrations.
The assay was performed in 96-well microtiter plates. The row designations were A through H and the column designations were 1 through 12. […] Each compound (see Table 6 for tested compounds) was added to the wells in column 1 and serially diluted to the wells in column 8. Wells 9 and 10 were control wells which contained no test compound (therefore no inhibition-full signal is detected.) The wells in columns 11 and 12 were blanks, where STOP solution was added prior to the addition of the enzyme/substrate mix to the NADPH regenerating system (the only signal present in these wells is background noise.) The assay was conducted in a final volume of 0.2 ml per well.
The stock solutions of the tested compounds were prepared in DMSO at 10 mM concentration. […] After mixing the compounds with solution containing NADPH-cofactors, the mixed plate was preincubated in a 37° C. incubator for at least 10 minutes; next, the fluorescence of compounds using recommended excitation/emission filters was measured in order to eliminate false results originating from autofluorescence of the compounds. In the following step, the enzyme/substrate mix was added to columns 1 through 10 and the plates were incubated at 37° C. for specific times depending on the CYP tested (incubation times ranged from 30 to 45 minutes). After adding STOP SOLUTION to all wells and respective enzyme/substrate mix to the wells in columns 11 and 12, the plate was scanned with a fluorescent plate scanner. The excitation/emission filters used for the specific assays are described in the GenTest Screening Kit instruction manual.

Chain of Pim-2 (Q9P1W9 whole entry): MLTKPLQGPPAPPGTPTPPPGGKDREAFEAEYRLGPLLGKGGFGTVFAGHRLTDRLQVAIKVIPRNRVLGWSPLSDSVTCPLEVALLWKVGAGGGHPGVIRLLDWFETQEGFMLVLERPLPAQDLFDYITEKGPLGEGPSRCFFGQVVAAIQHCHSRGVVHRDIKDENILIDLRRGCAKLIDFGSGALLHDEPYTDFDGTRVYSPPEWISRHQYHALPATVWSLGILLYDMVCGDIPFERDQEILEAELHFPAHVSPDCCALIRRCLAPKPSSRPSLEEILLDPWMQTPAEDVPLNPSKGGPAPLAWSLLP
Chain of FLT3wt (P36888 27-993): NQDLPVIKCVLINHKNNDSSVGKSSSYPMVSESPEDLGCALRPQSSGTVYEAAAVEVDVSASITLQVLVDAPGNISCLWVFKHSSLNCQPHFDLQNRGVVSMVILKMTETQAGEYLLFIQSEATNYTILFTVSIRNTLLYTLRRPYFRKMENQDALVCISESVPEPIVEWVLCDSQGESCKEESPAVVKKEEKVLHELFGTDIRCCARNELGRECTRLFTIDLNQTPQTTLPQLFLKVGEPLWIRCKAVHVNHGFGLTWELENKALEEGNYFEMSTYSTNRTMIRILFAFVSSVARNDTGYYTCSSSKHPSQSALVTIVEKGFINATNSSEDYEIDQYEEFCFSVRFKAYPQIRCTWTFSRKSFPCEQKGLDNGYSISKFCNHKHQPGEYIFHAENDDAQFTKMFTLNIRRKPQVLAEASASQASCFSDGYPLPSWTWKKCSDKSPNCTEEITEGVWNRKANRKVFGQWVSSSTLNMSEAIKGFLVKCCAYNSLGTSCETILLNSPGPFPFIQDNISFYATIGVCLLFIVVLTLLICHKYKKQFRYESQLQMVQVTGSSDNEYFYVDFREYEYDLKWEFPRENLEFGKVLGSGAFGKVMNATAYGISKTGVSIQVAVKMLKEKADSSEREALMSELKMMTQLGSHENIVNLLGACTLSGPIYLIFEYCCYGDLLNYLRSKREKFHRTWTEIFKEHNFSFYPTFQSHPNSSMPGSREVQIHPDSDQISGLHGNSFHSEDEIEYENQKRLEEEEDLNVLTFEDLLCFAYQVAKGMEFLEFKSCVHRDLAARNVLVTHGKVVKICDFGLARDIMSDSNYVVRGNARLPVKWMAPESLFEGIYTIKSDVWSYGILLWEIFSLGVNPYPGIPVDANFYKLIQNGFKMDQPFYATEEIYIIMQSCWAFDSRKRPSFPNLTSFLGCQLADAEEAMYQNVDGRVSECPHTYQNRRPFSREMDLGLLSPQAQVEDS
Chain of Pim-1 (P11309 whole entry): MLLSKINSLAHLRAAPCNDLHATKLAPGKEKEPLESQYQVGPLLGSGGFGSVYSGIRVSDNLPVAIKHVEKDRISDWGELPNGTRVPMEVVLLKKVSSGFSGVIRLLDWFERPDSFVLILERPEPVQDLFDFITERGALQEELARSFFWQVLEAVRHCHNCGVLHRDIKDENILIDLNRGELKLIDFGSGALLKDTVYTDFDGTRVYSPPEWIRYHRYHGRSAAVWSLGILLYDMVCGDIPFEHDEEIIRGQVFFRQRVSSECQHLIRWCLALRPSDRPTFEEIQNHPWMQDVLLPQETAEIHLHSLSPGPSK
Chain of CYP3A4 (P08684 whole entry, canonical isoform): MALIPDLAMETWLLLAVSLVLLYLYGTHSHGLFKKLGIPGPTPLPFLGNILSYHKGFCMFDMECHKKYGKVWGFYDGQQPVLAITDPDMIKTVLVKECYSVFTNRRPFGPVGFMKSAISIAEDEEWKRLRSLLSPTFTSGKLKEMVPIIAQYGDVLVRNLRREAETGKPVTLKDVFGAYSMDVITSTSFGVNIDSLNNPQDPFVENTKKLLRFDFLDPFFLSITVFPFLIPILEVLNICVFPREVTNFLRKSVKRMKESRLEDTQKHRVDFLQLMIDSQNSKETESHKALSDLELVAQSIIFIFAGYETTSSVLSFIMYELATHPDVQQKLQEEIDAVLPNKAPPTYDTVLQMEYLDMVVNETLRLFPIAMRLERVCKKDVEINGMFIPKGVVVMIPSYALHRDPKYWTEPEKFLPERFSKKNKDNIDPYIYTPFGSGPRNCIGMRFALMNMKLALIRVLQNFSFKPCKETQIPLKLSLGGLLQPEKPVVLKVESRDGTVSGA

Compound: CN[C@@H]1CCN(c2nc3c(C#N)c(Br)c(Br)cc3n2C(C)C)C1 [Example 1DW]
inhibition at 1 µM (Pim-1): > 95%
inhibition at 1 µM (FLT3wt): 8%
inhibition at 1 µM (CDK2/E): 48%
IC50 (MV4-11 cells): 5.1 µM
IC50 (MOLM16 cells): 0.3 µM

Compound: NCCCNc1nc2c([N+](=O)[O-])c(Br)c(Br)cc2[nH]1 [Example 1D]
inhibition at 1 µM (Pim-1): > 95%
inhibition at 1 µM (Pim-2): 41%
inhibition at 1 µM (Pim-3): 57%
inhibition at 1 µM (FLT3wt): < 5%
inhibition at 1 µM (CDK2/E): 21%
inhibition at 1 µM (DYRK1): 16%
IC50 (MV4-11 cells): 5.9 µM
IC50 (HEL92 cells): 8.2 µM
IC50 (HepG2 cells): 6.2 µM
IC50 (SW-480 cells): 6.2 µM
IC50 (CYP3A4): > 10 µM

Compound: CCC(C)n1c(N2CCNCC2)nc2c([N+](=O)[O-])c(Br)c(Br)cc21 (stereo not drawn) [Example 2I, 5,6-dibromo-1-(butan-2-yl)-4-nitro-2-(piperazin-1-yl)-1H-1,3-benzodiazole hydrochloride]
inhibition at 1 µM (Pim-1): > 95%
inhibition at 1 µM (Pim-2): 75%
inhibition at 1 µM (Pim-3): > 95%
inhibition at 1 µM (FLT3wt): 89%
inhibition at 1 µM (CDK2/E): 60%
inhibition at 1 µM (DYRK1): > 95%
IC50 (MV4-11 cells): 0.2 µM
IC50 (HEL92 cells): 0.8 µM
IC50 (HepG2 cells): 1.3 µM
IC50 (CYP3A4): 3.3 to 10 µM

Compound: NCCCn1c(N2CC[C@@H](N)C2)nc2c([N+](=O)[O-])c(Br)c(Br)cc21 [Example 3A, (3R)-1-[1-(3-aminopropyl)-5,6-dibromo-4-nitro-1H-1,3-benzodiazol-2-yl]pyrrolidin-3-amine]
inhibition at 1 µM (Pim-1): > 95%
inhibition at 1 µM (FLT3wt): < 5%
inhibition at 1 µM (CDK2/E): 20%
IC50 (MV4-11 cells): 2.3 µM
IC50 (HepG2 cells): 6.3 µM
IC50 (MOLM16 cells): 1.9 µM

Compound: CC(C)n1c(N2CCCC(O)C2)nc2c([N+](=O)[O-])c(Br)c(Br)cc21 (stereo not drawn) [Example 22G, 1-[5,6-dibromo-4-nitro-1-(propan-2-yl)-1H-1,3-benzodiazol-2-yl]piperidin-3-]
inhibition at 1 µM (Pim-1): > 95%
inhibition at 1 µM (Pim-2): 47%
inhibition at 1 µM (Pim-3): 87%
inhibition at 1 µM (FLT3wt): 13%
inhibition at 1 µM (CDK2/E): 5%
IC50 (MV4-11 cells): 4.8 µM
IC50 (CYP3A4): > 10 µM

More lines, in order of falling IC50 (MV4-11 cells), values ahead:

inhibition at 1 µM (Pim-1): > 95%
inhibition at 1 µM (Pim-2): 28%
inhibition at 1 µM (Pim-3): 84%
inhibition at 1 µM (FLT3wt): < 5%
inhibition at 1 µM (CDK2/E): < 5%
inhibition at 1 µM (DYRK1): 20%
IC50 (MV4-11 cells): 5.4 µM
IC50 (CYP3A4): > 10 µM
Compound: CC(C)n1c(N2CCC[C@H](O)C2)nc2c([N+](=O)[O-])c(Br)c(Br)cc21 [Example 22I, (3S)-1-[5,6-dibromo-4-nitro-1-(propan-2-yl)-1H-1,3-benzodiazol-2-yl]piperidin-3-ol]

inhibition at 1 µM (Pim-1): > 95%
inhibition at 1 µM (FLT3wt): < 5%
inhibition at 1 µM (CDK2/E): 50%
inhibition at 1 µM (DYRK1): 95%
IC50 (MV4-11 cells): 2.1 µM
IC50 (HepG2 cells): 2.9 µM
IC50 (MOLM16 cells): 1.5 µM
Compound: CCn1c(NC2CCC(N)CC2)nc2c(C#N)c(Br)c(Br)cc21 (stereo not drawn) [Example 1DV]

inhibition at 1 µM (Pim-1): > 95%
inhibition at 1 µM (FLT3wt): 38%
inhibition at 1 µM (CDK2/E): 36%
IC50 (MV4-11 cells): 0.8 µM
IC50 (MOLM16 cells): 1 µM
Compound: CC(C)n1c(C2CCC(N)CC2)nc2c([N+](=O)[O-])c(Br)c(Br)cc21 (stereo not drawn) [Example 26D, 4-[5,6-dibromo-4-nitro-1-(propan-2-yl)-1H-1,3-benzodiazol-2-yl]cyclohexan-1-amine]
IC50 (HEL92 cells): 9.7 µM
